In US9150568B2, “Compositions and methods for modulating FXR” (NOVARTIS AG, priority 2010, dated 2015):

Biological target: T1, human Farnesoid X Receptor (FXR) ligand binding domain (GST-FXR LBD) (Homo sapiens, UniProt Q96RI1)
T1 construct: purchased Invitrogen
T1 sequence (Q96RI1 193-472 isoform Q96RI1-2): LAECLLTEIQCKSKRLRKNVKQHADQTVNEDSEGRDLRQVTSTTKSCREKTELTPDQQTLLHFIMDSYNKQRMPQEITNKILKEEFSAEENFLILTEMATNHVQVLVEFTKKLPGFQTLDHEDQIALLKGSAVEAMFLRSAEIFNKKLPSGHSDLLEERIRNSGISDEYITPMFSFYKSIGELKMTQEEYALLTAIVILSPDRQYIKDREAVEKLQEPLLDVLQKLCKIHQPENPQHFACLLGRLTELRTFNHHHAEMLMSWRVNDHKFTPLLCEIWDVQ
Experiment: Human GST-FXR LBD co-activator interaction assay (HTRF)
Format: biochemical
Details: GST-FXR LBD / biotin-SRC-1 peptide FRET; response relative to GW4064; read-out: FXR Co-activator interaction assay (EC50)
Source text: Human GST-FXR LBD Co-activator interaction Assay. The FXR HTRF assay is a biochemical assay measuring the interaction between FXR and a coactivator protein (SRC1). The ligand-induced interaction with a coactivator protein is a critical step in transcriptional activation by FXR. Thus, this is an assay designed to measure FXR agonist activity of compounds.
The ligand-dependent interaction between GST-FXR LBD and a peptide derived from Steroid Receptor Coactivator-1 (SRC-1) was monitored by Fluorescence Resonance Energy Transfer (FRET). […] Test compounds (in DMSO solution) and detection reagents (anti-GST-Cryptate labeled antibody and Streptavidin-XL665 conjugate; CisBio) were added in assay buffer containing 50 mM KF.
A negative control (without Streptavidin-XL665) was run with each assay and represented the background fluorescence. A reference FXR agonist, GW4064, was included in each experiment as positive control. The efficacy of each test compound was compared to that of GW4064. At each concentration, the relative activity of the test compound was expressed as Response %=(Rsample−RDMSO)/(Rpositive−RDMSO), where Rsample is the HTRF response (expressed in Delta F %) for the test compound, Rpositive is the maximal response for GW4064 at saturating concentrations, and RDMSO is the response for DMSO control. The EC50 values were calculated using GraphPad Prism (GraphPad Software) using non-linear regression curve fit (log(agonist) vs. response—variable slope (four parameters)).

Row | SMILES | EC50
1 | COC(=O)c1cc(C)nc(N2C3CC[C@H]2CC(OCc2c(-c4ccccc4OC(F)F)noc2C2CC2)C3)n1 (some centres unmarked) [Example 22-5] | 27 nM
2 | O=C(O)c1cc(F)c2nc(N3[C@@H]4CC[C@H]3C[C@@H](OCc3c(-c5ccccc5C5CC5)noc3C3CC3)C4)sc2c1 [Example 30-23] | 0.4 nM
3 | COC(=O)c1cnc(N2C3CC[C@H]2C[C@H](OCc2c(-c4ccccc4OC(F)(F)F)noc2C2CC2)C3)c(C)c1 [Example 19-4A] | 70 nM
4 | COc1cc(C(=O)O)cc2sc(N3C4CC[C@H]3CC(OCc3c(-c5cccc(F)c5F)noc3C3CC3)C4)nc12 (some centres unmarked) [Example 30-64] | 7 nM
5 | Cc1ccccc1-c1noc(C2CC2)c1CO[C@H]1C[C@H]2CC[C@@H](C1)N2c1ccc(C(=O)O)c(C)n1 [Example 30-46] | 220 nM
6 | O=C(O)c1ccc(N2[C@@H]3CC[C@H]2C[C@@H](OCc2c(-c4ccccc4C4CC4)noc2C2CC2)C3)nc1 [Example 30-24] | 4 nM
7 | COc1cc(C(=O)O)cc2sc(N3C4CC[C@H]3C[C@H](OCc3c(C5CC5)noc3C3CC3)C4)nc12 [Example 12-3] | 40 nM
8 | O=C(O)c1ccc(N2C3CC[C@H]2CC(OCc2c(-c4ccc(F)cc4F)noc2C2CC2)C3)nc1 (some centres unmarked) [Example 30-63] | 57 nM
9 | Cc1cc(C(=O)O)nc(N2C3CC[C@H]2C[C@H](OCc2c(C4CCCCC4C(F)(F)F)noc2C2CC2)C3)n1 (some centres unmarked) [Example 8-6B] | 100 nM
10 | Cc1ccccc1-c1noc(C2CC2)c1COC1CC2CC[C@@H](C1)N2c1nc2c(F)cc(C(=O)O)cc2s1 (some centres unmarked) [Example 30-1] | 0.3 nM
11 | NC(=O)c1ccc(N2C3CC[C@H]2C[C@H](OCc2c(-c4ccccc4OC(F)(F)F)noc2C2CC2)C3)nc1 [Example 5-2] | 3.8 nM
12 | COC(=O)Cc1ccc(N2C3CC[C@H]2C[C@H](OCc2c(-c4ccccc4OC(F)(F)F)noc2C2CC2)C3)nc1 [Example 19-1A] | 180 nM
13 | Cc1cccc(F)c1-c1noc(C2CC2)c1CO[C@H]1C[C@H]2CC[C@@H](C1)N2c1ccc(C(=O)O)c(C)n1 [Example 30-51] | 52 nM
14 | O=C(O)c1nsc2cc(N3C4CC[C@H]3CC(OCc3c(-c5ccccc5OC(F)(F)F)noc3C3CC3)C4)ccc12 (some centres unmarked) [Example 28-1B, 6-(3-((5-Cyclopropyl-3-(2-(trifluoromethoxy)phenyl)isoxazol-4-yl)methoxy)-8-azabicyclo[3.2.1]octan-8-yl)benzo[d]isothiazole-3-carboxylic acid] | 0.6 nM
15 | O=C(O)c1cnc(N2C3CC[C@H]2CC(OCc2c(-c4ccccc4C(F)(F)F)noc2C2CC2)C3)cn1 (some centres unmarked) [Example 21-3B] | 9 nM
16 | COC(=O)c1cnc(N2C3CC[C@H]2CC(OCc2c(-c4ccccc4C(F)(F)F)noc2C2CC2)C3)cc1C(F)(F)F (some centres unmarked) [Example 21-4A] | 250 nM
17 | O=C(O)c1ccc(N2[C@@H]3CC[C@H]2C[C@@H](OCc2c(-c4c(F)cccc4F)noc2C2CC2)C3)nc1 [Example 22-13B] | 9 nM
18 | Cc1nc(N2C3CC[C@H]2CC(OCc2c(-c4ccccc4OC(F)(F)F)noc2C2CC2)C3)ccc1C(=O)O (some centres unmarked) [Example 30-44] | 8 nM
19 | Cc1ccccc1-c1noc(C2CC2)c1CO[C@H]1C[C@H]2CC[C@@H](C1)N2c1nc2ccc(C(=O)O)cc2s1 [Example 30-4] | 0.7 nM
20 | COC(=O)c1ccnc(N2C3CC[C@H]2CC(OCc2c(-c4ccccc4OC(F)F)noc2C2CC2)C3)n1 (some centres unmarked) [Example 22-2A] | 60 nM
21 | Cc1cc(C(=O)O)nc(N2C3CC[C@H]2CC(OCc2c(-c4c(C)cccc4C)noc2C2CC2)C3)n1 (some centres unmarked) [Example 30-16] | 24 nM
22 | COC(=O)c1cnc(N2C3CC[C@H]2CC(OCc2c(-c4ccccc4OC(F)F)noc2C2CC2)C3)cc1Cl (some centres unmarked) [Example 22-6A] | 56 nM
23 | O=C(O)c1cc(C2CC2)nc(N2C3CC[C@H]2CC(OCc2c(-c4ccccc4OC(F)F)noc2C2CC2)C3)n1 (some centres unmarked) [Example 30-41] | 4 nM
24 | COC(=O)c1cc(F)c2nc(N3C4CC[C@H]3CC(OCc3c(-c5ccccc5C(F)(F)F)noc3C3CC3)C4)sc2c1 (some centres unmarked) [Example 1-2A] | 28 nM
25 | O=C(O)c1cn2nc(N3C4CC[C@H]3CC(OCc3c(-c5ccccc5C(F)(F)F)noc3C3CC3)C4)ccc2n1 (some centres unmarked) [Example 31-2] | 13 nM

Row | SMILES | EC50
26 | COC(=O)c1ccc(N2C3CC[C@H]2CC(OCc2c(-c4ccccc4C(F)(F)F)noc2C2CC2)C3)c(F)c1 (some centres unmarked) [Example 25-5A] | 280 nM
27 | O=C(O)c1cnc2cc(N3C4CC[C@H]3CC(OCc3c(-c5ccccc5OC(F)(F)F)noc3C3CC3)C4)ccn12 (stereo in doubt) [Example 32-1, 7-(3-((5-cyclopropyl-3-(2-(trifluoromethoxy)phenyl)isoxazol-4-yl)methoxy)-8-azabicyclo[3.2.1]octan-8-yl)imidazo[1,2-a]pyridine-3-carboxylic acid] | 3 nM
28 | C[C@@H]1C(c2noc(C3CC3)c2COC2CC3CC[C@@H](C2)N3c2nc3c(F)cc(C(=O)O)cc3s2)C[C@@H]2C[C@H]1C2(C)C (some centres unmarked) [Example 29-5] | 6 nM
29 | O=C(O)CNC(=O)c1cc(F)c2nc(N3C4CC[C@H]3C[C@H](OCc3c(-c5ccccc5C(F)(F)F)noc3C3CC3)C4)sc2c1 [Example 15-4] | 0.8 nM
30 | O=C(O)c1ccc(N2C3CC[C@H]2CC(OCc2c(-c4ccccc4C(F)(F)F)noc2C2CC2)C3)c(F)c1 (some centres unmarked) [Example 25-5B] | 1 nM
31 | COC(=O)c1ccc(N2C3CC[C@H]2C[C@H](OCc2c(-c4ccccc4C(F)(F)F)noc2C2CC2)C3)nc1 [Example 18-6A] | 50 nM
32 | Cc1cc(C(=O)O)nc(N2C3CC[C@H]2CC(OCc2c(-c4cccc(F)c4)noc2C2CC2)C3)n1 (some centres unmarked) [Example 30-10] | 480 nM
33 | COC(=O)c1cccc(N2C3CC[C@H]2CC(OCc2c(-c4ccccc4C(F)(F)F)noc2C2CC2)C3)n1 (some centres unmarked) [Example 21-6A] | 60 nM
34 | COC(=O)c1ccc(N2C3CC[C@H]2CC(OCc2c(-c4c(F)cccc4F)noc2C2CC2)C3)c(F)c1 (some centres unmarked) [Example 25-3A] | 80 nM
35 | COc1cc(C(=O)O)cc2sc(N3C4CC[C@H]3CC(OCc3c(-c5ccccc5C)noc3C3CC3)C4)nc12 (some centres unmarked) [Example 30-5] | 0.4 nM
36 | Cc1cc(C(=O)O)nc(N2C3CC[C@H]2CC(OCc2c(-c4ccccc4C)noc2C2CC2)C3)n1 (some centres unmarked) [Example 30-3] | 15 nM
37 | O=C(O)c1ccc2nc(N3C4CC[C@H]3C[C@H](OCc3c(C5CCCCC5C(F)(F)F)noc3C3CC3)C4)sc2c1 (stereo in doubt) [Example 7B, 2-(3-((5-cyclopropyl-3-((trans)-2-(trifluoromethyl)cyclohexyl)isoxazol-4-yl)methoxy)-8-azabicyclo[3.2.1]octan-8-yl)benzo[d]thiazole-6-carboxylic acid] | 16 nM
38 | O=C(O)c1ccnc(N2C3CC[C@H]2C[C@H](OCc2c(-c4ccccc4OC(F)(F)F)noc2C2CC2)C3)n1 [Example 19-6B] | 7 nM
39 | COC(=O)c1cnc(N2C3CC[C@H]2C[C@H](OCc2c(-c4ccccc4OC(F)(F)F)noc2C2CC2)C3)nc1 [Example 18-4A] | 20 nM
40 | Cc1c(N2C3CC[C@H]2CC(OCc2c(-c4c(F)cccc4F)noc2C2CC2)C3)ccc2oc(C(=O)O)cc12 (some centres unmarked) [Example 28-10] | 0.9 nM
41 | COC(=O)c1ccnc(N2C3CC[C@H]2CC(OCc2c(-c4ccccc4C(F)(F)F)noc2C2CC2)C3)c1 (some centres unmarked) [Example 20A] | 170 nM
42 | Cc1nc(N2C3CC[C@H]2CC(OCc2c(-c4c(F)cccc4Cl)noc2C2CC2)C3)ccc1C(=O)O (some centres unmarked) [Example 30-52] | 26 nM
43 | Cc1nc(N2[C@@H]3CC[C@H]2C[C@@H](OCc2c(-c4ccccc4F)noc2C2CC2)C3)ccc1C(=O)O [Example 30-48] | 34 nM
44 | O=C(O)c1ccc(N2[C@@H]3CC[C@H]2C[C@@H](OCc2c(-c4cccc(F)c4F)noc2C2CC2)C3)nc1 [Example 30-65] | 86 nM
45 | O=C(O)c1cn2nc(N3C4CC[C@H]3CC(OCc3c(-c5ccccc5OC(F)(F)F)noc3C3CC3)C4)ccc2n1 (stereo in doubt) [Example 31-1, 6-(3-((5-Cyclopropyl-3-(2-(trifluoromethoxy)phenyl)isoxazol-4-yl)methoxy)-8-azabicyclo[3.2.1]octan-8-yl)imidazo[1,2-b]pyridazine-2-carboxylic acid] | 12 nM
46 | CC1(C)CCC(c2noc(C3CC3)c2CO[C@@H]2CC3CC[C@@H](C2)N3c2nc3ccc(C(=O)O)cc3s2)CC1 [Example 8-3] | 18 nM
47 | O=C(O)c1cn2ccc(N3C4CCC3CC(OCc3c(-c5ccccc5OC(F)(F)F)noc3C3CC3)C4)cc2n1 (centres unmarked) [Example 28-24] | 24 nM
48 | O=C(O)c1cnc(N2C3CC[C@H]2C[C@H](OCc2c(-c4ccccc4OC(F)(F)F)noc2C2CC2)C3)cn1 [Example 18-5B] | 3 nM
49 | O=C(O)c1ccc(N2C3CC[C@H]2CC(OCc2c(-c4ccccc4OC(F)F)noc2C2CC2)C3)nn1 (some centres unmarked) [Example 22-9B] | 17 nM
50 | O=C(NCCS(=O)(=O)O)c1ccc(N2C3CC[C@H]2C[C@H](OCc2c(-c4ccccc4OC(F)(F)F)noc2C2CC2)C3)nc1 [Example 16-4] | 9 nM
